Among the data in patent publication US5891917A, “Certain acrylonitrile-sulfonamide derivatives” (Sugen, Inc., priority 1997, dated 1999) are IC50 values, retold here.

Read-outs that look alike come from different tables or passages of the source.

For one assay, the target named is T1, FLK-1 receptor (Mus musculus, UniProt P35918).
T1 construct: expressed in transfected cells; host or cells: NIH3T3C7#3 cells (FLK-1 infected)
Put plainly: ELISA assay to measure kinase activity of FLK-1 receptor in FLK-1/NIH cells. Type of assay: cell-based, murine. The settings on record: 50 ng/ml VEGF, read-out: ELISA DATA: FLK-1-(Cell.). The text has this: For purposes of this application, although the nomenclature of the human and murine counterparts of the generic "flk-I" receptor differ, they are, in many respects, interchangeable. The murine receptor, FLK1, and its human counterpart, KDR, share a sequence homology of 93.4% within the intracellular domain. Likewise, murine FLK-I binds human VEGF with the same affinity as mouse VEGF, and accordingly, is activated by the ligand derived from either species. Millauer et al., 1993, Cell 72:835-846; Quinn et al., 1993, Proc. Natl. Acad. Sci. USA 90:7533-7537. FLK-1 also associates with and subsequently tyrosine phosphorylates human RTK substrates (e.g., PLC-γ or p85) when coexpressed in 293 cells (human embryonal kidney fibroblasts).
ELISA Assay To Measure Kinase Activity Of FLK-I Receptor In FLK-I/NIH Cells
An ELISA assay was conducted to measure the kinase activity of the FLK-I receptor and more specifically, the inhibition or activiation of protein tyrosine kinase activity on the FLK-I receptor.
k. N1H3T3C7#3 Cells (FLK-I infected cells);
1. Coat Corning 96-well elisa plates with 1.0 ug per well Cappel Anti-rabbit IgG antibody in 0.1M Na2CO3 pH 9.6. Bring final volume to 150 ul per well. Coat plates overnight at 4° C. Plates can be kept up to two weeks when stored at 4° C.
2. […]
(In general: ELISA stands for enzyme-linked immunosorbent assay.)

In another assay the test system is 3T3/IGF-1R cells. Put plainly: IGF-1 Receptor Growth Assay (3T3/IGF-1R). Type of assay: cell-based. Here is the method: IGF-1 Receptor Growth Assay
3T3/IGF-1 R (10% FBS/2 mM glutamine/DMEM)
Cell Plating--Trypsinize and count 3T3/IGF-1R and NIH 3T3 c7 cells. Dilute in growth media to 2000 cells/200 μl and seed flat bottom 96-well plates with 200 μl/well, one plate for two compounds for each cell line.
Compound preparation--Add DMSO to each compound to make 100 mM stock solutions.
Aliquot each compound to 3-4 sterile screw cap tubes and store at -20° C. After thawing, make sure the compound has gone completely back into solution. Throw away after 3 freeze/thaws.
3T3/IGF-1R cells--For each 96-well plate, make 15 ml of 10 nM IGF-1/0.5% FBS/2 mM glutamine/DMEM (30 μl of 5 μM IGF-1/15 ml).
Aliquot 1.5 ml 10 nM IGF-1/0.5% FBS to a sterile tube for each compound to be tested (the first time a compound is tested, use a 15 ml tube in case it is necessary to add extra medium to get it into solution).
Add 3 μl of 100 mM stock of each compound to a tube so 200 μM final. Shake or vortex until it goes into solution. If it is necessary to add additional medium, note the final concentration.
For the DMSO control, prepare 0.5 ml/plate of 0.2% DMSO/10 nM IGF-1/0.5% FBS (2 μl DMSO/ml).
For every two compounds, aliquot 130 μl 10 nM IGF-1/0.5% FBS to wells in columns 2-11 of a 96-well round bottom plate.
Add 260 μl of each compound to four wells in column 12.
Do 2-fold dilutions (130 μl) from columns 12 to 3 on each plate (column 2 will be for the untreated control), mixing thoroughly.
Remove medium from 3T3/IGF-1 R cells, one plate at a time.
Transfer 120 μl from each well on a compound dilution plate to the corresponding well of cells.
Add 120 μl 0.2% DMSO/10 nM IGF-1/0.5% FBS to four wells in column 1.
Add 120 μl 0.5% FBS (without IGF-1) to other four wells in column 1 for negative control.
Refeed--Repeat steps above, adding exactly the same IGF-1 and compound concentration to each well as before.
Analysis of cells--Look at wells with the highest concentrations for each compound to make sure it has not precipitated.
Detection--Follow the steps for fixing and staining described in the SOP for SRB Assays.
Data analysis--Find averages and standard deviations for each set of four OD's.
Using wells in column 2 (treated with IGF-1 but not compound) as 100%, calculate percent of control for each concentration of compound.
Determine the fold difference between the IGF-1-treated and untreated cells. It should be 2-3-fold.
Determine the percent of control for 0.2% DMSO.
Use a curve fit method to graph percent of control vs. log(molar concentration) and determine the IC50.

Setting [1] is: read-out: Growth Data: 3T3/IGF-1R-0.5% FBS.
Setting [2] is: read-out: Growth Data: 3T3/IGF-1R-10% FBS.

T1 sequence (P35918 20-1345): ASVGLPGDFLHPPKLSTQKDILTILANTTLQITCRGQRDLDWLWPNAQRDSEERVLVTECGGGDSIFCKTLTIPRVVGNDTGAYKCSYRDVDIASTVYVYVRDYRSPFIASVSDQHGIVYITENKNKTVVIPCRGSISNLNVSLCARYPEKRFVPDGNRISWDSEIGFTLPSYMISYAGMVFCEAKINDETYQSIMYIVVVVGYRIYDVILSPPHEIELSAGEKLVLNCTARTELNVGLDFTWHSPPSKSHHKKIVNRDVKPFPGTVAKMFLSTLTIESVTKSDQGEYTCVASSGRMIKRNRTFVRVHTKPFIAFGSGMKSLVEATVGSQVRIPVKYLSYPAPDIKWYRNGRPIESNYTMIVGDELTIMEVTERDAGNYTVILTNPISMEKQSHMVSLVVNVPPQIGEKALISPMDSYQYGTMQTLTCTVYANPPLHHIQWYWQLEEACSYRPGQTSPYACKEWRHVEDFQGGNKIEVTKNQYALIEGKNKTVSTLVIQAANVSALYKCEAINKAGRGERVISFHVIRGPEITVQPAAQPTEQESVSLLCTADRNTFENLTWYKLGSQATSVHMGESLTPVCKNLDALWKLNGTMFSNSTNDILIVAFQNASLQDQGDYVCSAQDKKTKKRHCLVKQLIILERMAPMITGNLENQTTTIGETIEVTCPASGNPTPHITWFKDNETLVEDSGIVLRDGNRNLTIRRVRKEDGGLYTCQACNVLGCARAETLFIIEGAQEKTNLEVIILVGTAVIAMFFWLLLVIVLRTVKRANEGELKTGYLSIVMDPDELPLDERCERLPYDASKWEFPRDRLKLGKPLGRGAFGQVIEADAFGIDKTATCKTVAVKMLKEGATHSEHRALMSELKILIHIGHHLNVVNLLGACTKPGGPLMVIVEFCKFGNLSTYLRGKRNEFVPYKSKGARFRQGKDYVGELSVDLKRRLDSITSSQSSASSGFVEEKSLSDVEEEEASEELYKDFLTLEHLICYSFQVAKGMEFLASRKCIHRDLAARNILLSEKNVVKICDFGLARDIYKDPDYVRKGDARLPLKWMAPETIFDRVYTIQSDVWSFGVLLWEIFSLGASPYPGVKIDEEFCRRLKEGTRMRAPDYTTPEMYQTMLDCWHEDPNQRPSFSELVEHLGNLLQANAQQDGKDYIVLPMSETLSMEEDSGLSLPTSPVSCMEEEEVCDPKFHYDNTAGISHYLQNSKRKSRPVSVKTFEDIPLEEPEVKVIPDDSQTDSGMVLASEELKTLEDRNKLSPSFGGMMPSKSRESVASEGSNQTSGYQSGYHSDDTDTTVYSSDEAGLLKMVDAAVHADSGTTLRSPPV

For `CC(C)c1cc(/C=C(\C#N)S(=O)(=O)c2ccccn2)cc(C(C)C)c1O` [Compound 747], at FLK-1 receptor, the IC50 is above 50 µM.
As to `CC(C)c1cc(/C=C(\C#N)S(=O)(=O)Cc2cccc(C(F)(F)F)c2)cc(C(C)C)c1O` [Compound 736], the figures for the IC50 in the assay with 3T3/IGF-1R cells (setting [1]) and in the assay on 3T3/IGF-1R cells (setting [2]) were 14.7 µM and 74 µM, respectively.
Regarding `CC(C)c1cc(/C=C(\C#N)S(=O)(=O)NCc2ccccc2)cc(C(C)C)c1O` [Compound 732], the IC50 in the assay on 3T3/IGF-1R cells (setting [1]) came to 9.2 µM; in the assay with 3T3/IGF-1R cells (setting [2]) it was 79 µM.
On to `CC(C)c1cc(/C=C(\C#N)S(=O)(=O)c2ccc(F)cc2)cc(C(C)C)c1O` [Compound 741, (E)-3-(3,5-Diisopropyl-4-hydroxyphenyl)-2-(4-fluorophenylsulfonyl)acrylonitrile], for which the IC50 stood at 35 µM in the assay on 3T3/IGF-1R cells (setting [1]) and 91 µM in the assay with 3T3/IGF-1R cells (setting [2]).
In the same order, the values of `CC(C)c1cc(/C=C(\C#N)S(=O)(=O)c2ccccc2)cc(C(C)C)c1O` [Compound 731] are 25 µM and 92 µM.
In the case of `Cc1cc(/C=C(\C#N)S(=O)(=O)c2ccccc2)cc(C)c1O` [Compound 748], the IC50 on FLK-1 receptor was below 50 µM.
